{
  "source": "paper PMC12004904",
  "about": "“Antifouling Activity of Xylemin, Its Structural Analogs, and Related Polyamines” (Chemistry & Biodiversity, 2025)",
  "key": {"[1]": {"tested_on": "barnacle A. amphitrite", "set-up": "method as in ref 30 = [30]; 30 J. A. Ponasik , S. Conova , D. Kinghorn , W. A. Kinney , D. Rittschof , and B. Ganem , “ Pseudoceratidine, a Marine Natural Product with Antifouling Activity: Synthetic and Biological Studies ,” Te", "conditions": "cited from earlier work"}, "[2]": {"tested_on": "xylem formation", "set-up": "method as in PMID 26879262", "conditions": "cited from earlier work"}, "[3]": {"tested_on": "cypris larvae of the barnacle Amphibalanus amphitrite", "test": "Antifouling (settlement inhibition) assay against barnacle cypris larvae", "type": "in vivo", "conditions": "96 h; for EC50: Amphibalanus amphitrite; for EC50 / Antifouling activity EC50: cypris larvae, 24‐well plates, 25°C, dark, concentration reducing larval settlement to 50% of negative control; for Antifouling (settlement‐inhibitory) activity in words: up to 50 µg/mL", "experimental": "First, the biological activities of xylemin (1) and its related compounds were assayed against the cypris larvae of the barnacle A. amphitrite. The larvae were treated using 24‐well polystyrene plates with 6 different concentrations of the compounds at 25°C in the dark for 96 h.\nEvaluation of the biological activity and statistical analysis were conducted according to the previous work. Adult barnacles of A. amphitrite attached to stones were collected in Kobe, Japan, in 2023 and maintained in aquaria. Nauplii released from adults were cultured in filtered seawater (FSW) with penicillin/streptomycin (FUJIFILM Wako Pure Chemical Corp., Osaka, Japan) and fed Chaetoceros calcitrans at 25°C, under a 12 h light/12 h dark cycle. The larvae reached the cypris stage after 5–6 days. Cyprids were collected, rinsed with FSW, and stored in the dark at 5°C for 3–4 days until use. The effects of the compounds on barnacle cyprids were evaluated using 24‐well polystyrene plates (Corning Inc., Corning, NY, USA). Each compound was dissolved in MeOH, and the solution was diluted with the same solvent to concentrations of 0.01, 0.03, 0.1, 0.3, 1.0, and 5.0 µg/µL. Aliquots (10 µL) of the solutions were added to the wells of the polystyrene plates and air‐dried. Each well was charged with approximately ten cypris larvae and FSW (1.0 mL). The plates were incubated at 25°C in the dark for 96 h. […] Each concentration was tested in three wells, and the experiment was performed three times with different batches of larvae. The assay was conducted using CuSO4 (0.01, 0.03, 0.1, 0.3, 1.0, 3.0, and 10 µg) as a positive control. An assay without any compound was used as a negative control. Settlement inhibition was calculated based on negative control settlement. Antifouling activity (EC50) and toxicity (LC50) were calculated using probit analyses. EC50 indicates the concentration that reduces the larval settlement to 50% of the negative control. LC50 indicates the concentration that causes 50% mortality."}, "[4]": {"tested_on": "thermospermine synthase ACAULIS5 (ACL5)", "set-up": "method as in ref 25 = [25]; 25 H. Takamura , H. Motose , T. Otsu , et al., “ Chemical Synthesis and Biological Effect on Xylem Formation of Xylemin and Its Analogues ,” European Journal of Organic Chemistry 2020 ( 2020 ): 2745 –", "conditions": "cited from earlier work"}, "[5]": {"tested_on": "zooplankton Artenia larvae", "set-up": "method as in PMID 27919420", "conditions": "cited from earlier work"}},
  "data": [
    {"smiles": "O=C(O)c1cc(Br)c(Br)[nH]1", "note": "[4,5‐dibromopyrrole‐2‐carboxylic acid]", "values": [
      {"measurement": "Antifouling activity EC50", "setting": "[1]", "value": 15, "unit": "µg/mL"}
    ]},
    {"smiles": "CCCNCCCCN", "note": "[Compound 1, N‐(4‐aminobutyl)propylamine]", "values": [
      {"measurement": "Xylem formation / differentiation", "setting": "[2]", "value": "enhanced xylem formation"},
      {"measurement": "EC50", "setting": "[3]", "value": 4.25, "unit": "µg/mL"},
      {"measurement": "Expression of ACL5", "setting": "[4]", "value": "promoted the expression"}
    ]},
    {"smiles": "CCCNCCCCNC(=O)OC(C)(C)C", "note": "[Compound 2]", "values": [
      {"measurement": "EC50", "setting": "[3]", "value": 6.11, "unit": "µg/mL"}
    ]},
    {"smiles": "CCC(CC)NCCCCN", "note": "[Compound 3, N‐(4‐aminobutyl)‐1‐ethylpropylamine]", "values": [
      {"measurement": "EC50", "setting": "[3]", "value": "> 50", "unit": "µg/mL"}
    ]},
    {"smiles": "NCCCCNC1CCCC1", "note": "[Compound 4, N‐(4‐aminobutyl)cyclopentylamine]", "values": [
      {"measurement": "Xylem formation / differentiation", "setting": "[2]", "value": "significant activity in promoting xylem differentiation"},
      {"measurement": "EC50", "setting": "[3]", "value": "> 50", "unit": "µg/mL"},
      {"measurement": "Antifouling (settlement‐inhibitory) activity in words", "setting": "[3]", "value": "no inhibitory activity"}
    ]},
    {"smiles": "NCCCCNC1CCCCC1", "note": "[Compound 5, N‐(4‐aminobutyl)cyclohexylamine]", "values": [
      {"measurement": "EC50", "setting": "[3]", "value": "> 50", "unit": "µg/mL"},
      {"measurement": "Antifouling (settlement‐inhibitory) activity in words", "setting": "[3]", "value": "lacked antifouling activity"}
    ]},
    {"smiles": "NCCCCNC1CCCCCC1", "note": "[Compound 6, N‐(4‐aminobutyl)cycloheptylamine]", "values": [
      {"measurement": "EC50", "setting": "[3]", "value": "> 50", "unit": "µg/mL"},
      {"measurement": "Antifouling (settlement‐inhibitory) activity in words", "setting": "[3]", "value": "lacked antifouling activity"}
    ]},
    {"smiles": "NCCCCN", "note": "[Compound 7, putrescine, reference compound]", "values": [
      {"measurement": "EC50", "setting": "[3]", "value": "> 50", "unit": "µg/mL"},
      {"measurement": "Antifouling (settlement‐inhibitory) activity in words", "setting": "[3]", "value": "non‐antifouling activity"}
    ]},
    {"smiles": "NCCCCNCCCN", "note": "[Compound 8, spermidine, reference compound]", "values": [
      {"measurement": "Antifouling activity EC50", "setting": "[3]", "value": ">50", "unit": "µg/mL"},
      {"measurement": "Antifouling (settlement‐inhibitory) activity in words", "setting": "[3]", "value": "did not exhibit antifouling activity"}
    ]},
    {"smiles": "NCCCNCCCCNCCCN", "note": "[Compound 9, spermine, reference compound]", "values": [
      {"measurement": "Antifouling activity EC50", "setting": "[3]", "value": ">50", "unit": "µg/mL"}
    ]},
    {"smiles": "NCCCCNCCCNCCCN", "note": "[Compound 10, thermospermine, reference compound]", "values": [
      {"measurement": "Antifouling activity EC50", "setting": "[3]", "value": ">50", "unit": "µg/mL"}
    ]},
    {"smiles": "CN(C)C(=O)Nc1ccc(Cl)c(Cl)c1", "note": "[Diuron]", "values": [
      {"measurement": "LC50 (50% lethal concentration)", "setting": "[5]", "value": 30.6, "unit": "µg/mL"}
    ]},
    {"smiles": "NCCCCNC1CCCC1", "note": "[N‐(4‐aminobutyl)cyclopentylamine]", "values": [
      {"measurement": "Xylem formation / differentiation", "setting": "[2]", "value": "enhanced xylem formation"},
      {"measurement": "Expression of ACL5", "setting": "[4]", "value": "promoted the expression"}
    ]},
    {"smiles": "NCCCCNCCCN", "note": "[spermidine]", "values": [
      {"measurement": "EC50", "setting": "[3]", "value": "> 50", "unit": "µg/mL"}
    ]},
    {"smiles": "NCCCNCCCCNCCCN", "note": "[spermine]", "values": [
      {"measurement": "EC50", "setting": "[3]", "value": "> 50", "unit": "µg/mL"}
    ]},
    {"smiles": "NCCCCNCCCNCCCN", "note": "[thermospermine]", "values": [
      {"measurement": "EC50", "setting": "[3]", "value": "> 50", "unit": "µg/mL"}
    ]}
  ]
}
